Assay [1] addresses T1, Biotin tagged HIF-2α protein containing PAS-B domain (240-350) (Homo sapiens, UniProt Q99814).
T1 construct: Biotin tagged HIF-2α protein containing PAS-B domain (240-350) was prepared and purified in-house; made in house
Nature of the assay: HIF-2α Scintillation Proximity Assay (SPA) binding assay. To be noted: 50 nM HIF-2α protein, 25 nM 3H-tracer, 2% DMSO. As for the experimental part:
HIF-2α Scintillation Proximity Assay (SPA) Binding Assay:
Biotin tagged HIF-2α protein containing PAS-B domain (240-350) was prepared and purified in-house.
Compounds solubilized in DMSO were dispensed into a white 384-well polystyrene non-binding flat clear bottom plate (Greiner Bio-One, Cat #781903) using an HP D300 dispenser. Ten microliters of biotinylated HIF-2α protein in buffer (25 mM Tris-HCl, pH 7.4, 150 mM NaCl, 0.15% BSA and 0.001% Tween 20) was added to the compound wells and allowed to incubate for 1 hour at room temperature. Ten microliters of SPA bead mix were added to the wells and incubated for an additional 45 minutes, followed by 10 ul of ^3H-tracer solution. Final assay conditions comprised 50 nM HIF-2α protein, 25 nM radiolabeled tracer and 3 ug beads per well with compounds in 2% DMSO. The plate was read using a MicroBeta Microplate Counter (PerkinElmer) for luminescence detection. The IC50 values of the test compounds were determined from compound dose response curves fitted using a standard four parameter fit equation and are reported in Table 2.
A general note: In a scintillation proximity assay essentially only radioactivity close to the scintillant gives light.

The target of assay [2] is T2, HIF-2α (Homo sapiens, UniProt Q99814). Briefly: HIF-2α Luciferase Reporter Assay (serum), HRE-luciferase 786-0 cells in 100% human serum. The class given is cell-based. The note with it: for IC50: 100% human serum, 786-0 reporter cells, overnight incubation, read-out: Serum Potency; for Serum Shift (approximate): ratio of IC50 in 100% serum to IC50 in serum free conditions. The method in brief: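 786-0 cells stably expressing an HRE-luciferase reporter were plated and rested 3 h. They were then treated overnight at 37 °C with compound diluted in 100% human serum. Serum was replaced with Opti-MEM, ONE-Glo luminescence was read, and IC50 came from a 4-parameter logistic fit.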
T2 sequence (Q99814 whole entry): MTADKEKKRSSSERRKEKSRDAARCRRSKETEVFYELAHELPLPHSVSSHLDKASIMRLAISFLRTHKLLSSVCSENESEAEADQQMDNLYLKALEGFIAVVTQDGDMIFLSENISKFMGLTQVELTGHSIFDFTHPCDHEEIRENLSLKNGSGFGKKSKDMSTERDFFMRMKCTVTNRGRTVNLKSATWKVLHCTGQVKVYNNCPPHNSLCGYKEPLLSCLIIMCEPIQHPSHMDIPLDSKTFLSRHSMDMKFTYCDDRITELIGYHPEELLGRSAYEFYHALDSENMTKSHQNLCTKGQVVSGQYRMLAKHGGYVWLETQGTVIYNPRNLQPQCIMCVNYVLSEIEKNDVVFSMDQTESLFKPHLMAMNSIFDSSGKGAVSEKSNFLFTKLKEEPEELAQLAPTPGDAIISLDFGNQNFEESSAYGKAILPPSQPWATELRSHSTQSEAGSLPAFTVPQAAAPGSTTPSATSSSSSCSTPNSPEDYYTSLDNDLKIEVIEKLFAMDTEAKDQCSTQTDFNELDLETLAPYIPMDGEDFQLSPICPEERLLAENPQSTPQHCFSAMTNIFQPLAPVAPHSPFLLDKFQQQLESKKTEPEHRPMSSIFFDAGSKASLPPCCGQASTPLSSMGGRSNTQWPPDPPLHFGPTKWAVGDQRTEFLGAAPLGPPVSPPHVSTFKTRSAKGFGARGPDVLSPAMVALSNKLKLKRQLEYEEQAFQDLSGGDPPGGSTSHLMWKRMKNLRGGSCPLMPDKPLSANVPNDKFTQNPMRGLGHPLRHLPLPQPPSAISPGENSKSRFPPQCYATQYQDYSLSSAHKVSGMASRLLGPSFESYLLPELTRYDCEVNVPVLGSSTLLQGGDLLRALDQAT
For orientation: In a reporter assay the amount or activity of a reporter protein is the signal.

In assay [3] the target is T2, HIF-2α. Briefly: HIF-2α Luciferase Reporter Assay (serum free) in HIF-Luc-786-0 cells. The format is cell-based. The note with it: Opti-MEM, 786-0 reporter cells, 20 hours incubation. The method in brief: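 786-0 cells stably transduced with HIF luciferase reporter, 20,000 cells/well in serum-free Opti-MEM, compounds (50 uM downward, 1% DMSO) 20 h at 37 °C. ONE-Glo luminescence normalized to DMSO and no-cell controls; IC50 from four-parameter fit.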

Results on 24 compounds are retold here after patent US12071411B2, “Inhibitors of HIF-2α and methods of use thereof” (ARCUS BIOSCIENCES, INC., priority 2021, dated 2024).

T1 sequence (Q99814 240-350): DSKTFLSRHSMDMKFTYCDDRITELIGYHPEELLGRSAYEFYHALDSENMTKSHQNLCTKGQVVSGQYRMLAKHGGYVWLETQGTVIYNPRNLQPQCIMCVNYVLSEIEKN

As to `CC(C)(C#N)CCn1nc(C(F)(F)F)c2c1CCC(F)(F)[C@H]2O` [Example 1, 4-[(4S)-5,5-Difluoro-4-hydroxy-3-(trifluoromethyl)-6,7-dihydro-4H-indazol-1-yl]-2,2-dimethylbutanenitrile], the IC50 in assay [1] is 100 to 1000 nM; in assay [2], > 1000 nM; in assay [3] it was > 1000 nM. The “Serum Shift (approximate)” value in assay [2] was 2.
As for `CC(C)CCn1nc(C(F)(F)F)c2c1CCC(F)(F)[C@H]2O` [Example 40, (4S)-5,5-difluoro-1-(3-methylbutyl)-3-(trifluoromethyl)-6,7-dihydro-4H-indazol-4-ol], the IC50 in assay [1] is 100 to 1000 nM; in assay [2], > 1000 nM; in assay [3], 100 to 1000 nM. For the same compound, the “Serum Shift (approximate)” value in assay [2] came out at 31.
As for `O[C@H]1c2c(C(F)(F)F)nn(CCOC(F)(F)F)c2CCC1(F)F` [Example 60, (4S)-5,5-difluoro-1-[2-(trifluoromethoxy)ethyl]-3-(trifluoromethyl)-6,7-dihydro-4H-indazol-4-ol], the IC50 in assay [1], in assay [2] and in assay [3] was > 1000 nM in each case. The “Serum Shift (approximate)” value in assay [2] is given as 3.
`O[C@H]1c2c(C(F)(F)F)nn(CCOC3CC3(F)F)c2CCC1(F)F` (stereo partly drawn) [Example 25, (4S)-1-[2-(2,2-difluorocyclopropoxy)ethyl]-5,5-difluoro-3-(trifluoromethyl)-4,5,6,7-tetrahydro-1H-indazol-4-ol]: the IC50 in assay [1] and in assay [3] was > 1000 nM each time.
In the case of `O[C@H]1c2c(C(F)(F)F)nn(CCC3CC3)c2CCC1(F)F` [Example 22, (4S)-1-(2-cyclopropylethyl)-5,5-difluoro-3-(trifluoromethyl)-4,5,6,7-tetrahydro-1H-indazol-4-ol], the IC50 in assay [1] was 100 to 1000 nM; in assay [2], > 1000 nM; in assay [3] it was 100 to 1000 nM. In addition, in assay [2], the “Serum Shift (approximate)” value came out at 10.
As for `O[C@H]1c2c(C(F)(F)F)nn(CCC(F)(F)F)c2CCC1(F)F` [Example 33, (4S)-5,5-difluoro-3-(trifluoromethyl)-1-(3,3,3-trifluoropropyl)-6,7-dihydro-4H-indazol-4-ol], the IC50 in assay [1] is 100 to 1000 nM; in assay [2], > 1000 nM; in assay [3] it was 100 to 1000 nM. Also, in assay [2], the “Serum Shift (approximate)” value came out at 9.
Regarding `O[C@H]1c2c(C(F)(F)F)nn(CCC3CC(F)(F)C3)c2CCC1(F)F` [Example 44, (4S)-1-[2-(3,3-difluorocyclobutyl)ethyl]-5,5-difluoro-3-(trifluoromethyl)-6,7-dihydro-4H-indazol-4-ol], the IC50 in assay [1] was 100 to 1000 nM; in assay [2], > 1000 nM; in assay [3], 100 to 1000 nM. The “Serum Shift (approximate)” value in assay [2] is 6.
As to `CC(CCn1nc(C#N)c2c1CCC(F)(F)[C@H]2O)C(F)(F)F` (stereo partly drawn) [Example 49, (4S)-5,5-difluoro-4-hydroxy-1-(4,4,4-trifluoro-3-methylbutyl)-6,7-dihydro-4H-indazole-3-carbonitrile], the IC50 was 100 to 1000 nM in assay [1], > 1000 nM in assay [2] and 100 to 1000 nM in assay [3]. Besides, the “Serum Shift (approximate)” value in assay [2] is given as 7.
In the case of `CC(CCn1nc(S(C)(=O)=O)c2c1CCC(F)(F)[C@H]2O)C(F)(F)F` (stereo partly drawn) [Example 50, (4S)-5,5-difluoro-3-methylsulfonyl-1-(4,4,4-trifluoro-3-methylbutyl)-6,7-dihydro-4H-indazol-4-ol], the IC50 in assay [1] and in assay [3] was > 1000 nM throughout.
`O[C@H]1c2c(C(F)(F)F)nn(CC3CC3(F)F)c2CCC1(F)F` (single isomer, unassigned) [23/24 DIAST-2]: the IC50 is 100 to 1000 nM in assay [1], > 1000 nM in assay [2] and 100 to 1000 nM in assay [3]. In assay [2], the “Serum Shift (approximate)” value is listed as 10.
Take `COCCCn1nc(C(F)(F)F)c2c1CCC(F)(F)[C@H]2O` [Example 9, (4S)-5,5-difluoro-1-(3-methoxypropyl)-3-(trifluoromethyl)-6,7-dihydro-4H-indazol-4-ol]: the IC50 in assay [1] and in assay [3] was > 1000 nM in each case.
With `O[C@H]1c2c(C(F)(F)F)nn(CCC3(C(F)(F)F)CC3)c2CCC1(F)F` [Example 5, (4S)-5,5-difluoro-3-(trifluoromethyl)-1-[2-[1-(trifluoromethyl)cyclopropyl]ethyl]-6,7-dihydro-4H-indazol-4-ol], the IC50 is 100 to 1000 nM in assay [1], > 1000 nM in assay [2] and 100 to 1000 nM in assay [3]. Further, the “Serum Shift (approximate)” value in assay [2] is listed as 18.
For `CC(CCn1nc(C(F)(F)F)c2c1CCC(F)(F)[C@H]2O)C(F)(F)F` (stereo partly drawn) [Example 38, (4S)-5,5-difluoro-3-(trifluoromethyl)-1-(4,4,4-trifluoro-3-methylbutyl)-6,7-dihydro-4H-indazol-4-ol], the IC50 in assay [1] was < 100 nM; in assay [2], 100 to 1000 nM; in assay [3] it was 100 to 1000 nM. Also, in assay [2], the “Serum Shift (approximate)” value worked out at 8.
For `O[C@H]1c2c(C(F)(F)F)nn(CC3CC(F)(F)C3)c2CCC1(F)F` [Example 2, (4S)-1-[(3,3-difluorocyclobutyl)methyl]-5,5-difluoro-3-(trifluoromethyl)-6,7-dihydro-4H-indazol-4-ol], the IC50 in assay [1] was 100 to 1000 nM; in assay [2], > 1000 nM; in assay [3], 100 to 1000 nM. Moreover, the “Serum Shift (approximate)” value in assay [2] was 13.
Turning to `OC(CCn1nc(C(F)(F)F)c2c1CCC(F)(F)[C@H]2O)C(F)(F)F` (stereo partly drawn) [Example 16, (4S)-5,5-difluoro-1-(4,4,4-trifluoro-3-hydroxybutyl)-3-(trifluoromethyl)-6,7-dihydro-4H-indazol-4-ol], the IC50 was 100 to 1000 nM in assay [1], > 1000 nM in assay [2] and 100 to 1000 nM in assay [3]. For the same compound, in assay [2], the “Serum Shift (approximate)” value was 22.
`CC(C#N)CCn1nc(C(F)(F)F)c2c1CCC(F)(F)[C@H]2O` (stereo partly drawn) [Example 3, 4-[(4S)-5,5-difluoro-4-hydroxy-3-(trifluoromethyl)-6,7-dihydro-4H-indazol-1-yl]-2-methylbutanenitrile]: the IC50 in assay [1], in assay [2] and in assay [3] was 100 to 1000 nM in each case. The “Serum Shift (approximate)” value in assay [2] worked out at 1.
For the compound `O[C@H]1c2c(C(F)(F)F)nn(C3CCC(F)(F)CC3)c2CCC1(F)F` [Example 36, (4S)-1-(4,4-difluorocyclohexyl)-5,5-difluoro-3-(trifluoromethyl)-6,7-dihydro-4H-indazol-4-ol], the IC50 in assay [1] and in assay [3] was 100 to 1000 nM in each case.
Turning to `CO[C@H]1c2c(C(F)(F)F)nn(CCCC(F)(F)F)c2CCC1(F)F` [Example 47, (4S)-5,5-difluoro-4-methoxy-1-(4,4,4-trifluorobutyl)-3-(trifluoromethyl)-6,7-dihydro-4H-indazole], the IC50 in assay [1] and in assay [3] was > 1000 nM each time.
Consider `O[C@H]1c2c(C(F)(F)F)nn(CC3CC3)c2CCC1(F)F` [Example 10, (4S)-1-(cyclopropylmethyl)-5,5-difluoro-3-(trifluoromethyl)-6,7-dihydro-4H-indazol-4-ol], for which the IC50 in assay [1] and in assay [3] was > 1000 nM each time.
Take `O[C@H]1c2c(C(F)(F)F)nn([C@H]3CC[C@H](C(F)(F)F)CC3)c2CCC1(F)F` [Example 37, (4S)-5,5-difluoro-3-(trifluoromethyl)-1-[4-(trifluoromethyl)cyclohexyl]-6,7-dihydro-4H-indazol-4-ol]: the IC50 in assay [1] and in assay [3] was > 1000 nM throughout.
`O[C@H]1c2c(C(F)(F)F)nn(C[C@H]3C[C@H](F)C3)c2CCC1(F)F` [Example 45, (4S)-5,5-difluoro-1-[(3-fluorocyclobutyl)methyl]-3-(trifluoromethyl)-6,7-dihydro-4H-indazol-4-ol]: the IC50 in assay [1] was 100 to 1000 nM; in assay [3], > 1000 nM.
`O[C@H]1c2c(C(F)(F)F)nn(C3CC4(C3)CC(F)(F)C4)c2CC1(F)F` [Example 66, (4S)-1-{6,6-difluorospiro[3.3]heptan-2-yl}-5,5-difluoro-3-(trifluoromethyl)-4,6-dihydrocyclopenta[c]pyrazol-4-ol]: in assay [2], the IC50 is 100 to 1000 nM and the “Serum Shift (approximate)” value is recorded as 6. Moreover, in assay [3], the IC50 was < 100 nM.
In the case of `O[C@H]1c2c(C(F)(F)F)nn([C@H]3CCCC(F)(F)C3)c2[C@@H](F)[C@H]1F` (single isomer, unassigned) [136/137 DIAST-1], the figures for the IC50 in assay [2] and in assay [3] were > 1000 nM and < 100 nM, respectively. In assay [2], the “Serum Shift (approximate)” value turned out to be 4.
For `C[C@H](OC(F)F)[C@H]1C[C@H](n2nc(C(F)(F)F)c3c2CC(F)(F)[C@H]3O)C1` [Example 106, (4S)-1-[3-[(1S)-1-(difluoromethoxy)ethyl]cyclobutyl]-5,5-difluoro-3-(trifluoromethyl)-4,6-dihydrocyclopenta[c]pyrazol-4-ol] the same measures were 100 to 1000 nM, 100 to 1000 nM and 1.
